# Source: US8329447B2, “Strain of Lactobacillus crispatus” (Osel, Inc., priority 2008, dated 2012)
# “Also recorded” adds a separate entry of the source.
# System: SJ-3C cells
# Test: Agar overlay disc diffusion antibiotic susceptibility
# Type: cell-based, Lactobacillus crispatus
# Settings: BBL Sensi-Disc on MRS agar overlay, 37° C. overnight anaerobically
row,Compound,antibiotic susceptibility or resistance of SJ-3C
1,Cc1ncc([N+](=O)[O-])n1CCO [metronidazole],resistance
2,CCC[C@@H]1C[C@@H](C(=O)N[C@@H]([C@H]2O[C@H](SC)[C@H](O)[C@@H](O)[C@H]2O)[C@@H](C)O)N(C)C1 [lincomycin],resistance; also recorded: resistant
3,Cc1noc(NS(=O)(=O)c2ccc(N)cc2)c1C [sulfisoxazole],resistance
4,gentamicin,resistance
5,sulfamethoxazole-trimethoprim,resistance
6,O=C(O)c1cn(C2CC2)c2cc(N3CCNCC3)c(F)cc2c1=O [ciprofloxacin],resistance
7,C[C@@H]1O[C@@H]1P(=O)(O)O [fosfomycin],resistance
